Data from patent US20250154686A1, “COMPOUND LIBRARY” (CHUGAI SEIYAKU KABUSHIKI KAISHA, priority 2021, published 2025).

Assays:
[1] = molecular target: T1, Human Bcl-2 protein (Homo sapiens, UniProt P10415); experiment: Evaluation of binding of compound to Bcl-2 by surface plasmon resonance (SPR)-2, Example 13; conditions: for equilibrium dissociation constant KD compared with B2Q045-01 (KD=1.20 μM) or B2Q048-01 (KD=0.480 μM): Biacore T200, 15° C.; for Kd: Biacore T200, biotinylated Bcl-2 immobilized on Sensor Chip SA, 15° C., read-out: Equilibrium dissociation constant KD
T1 construct: purchased Novus Biologicals
T1 sequence (P10415 whole entry): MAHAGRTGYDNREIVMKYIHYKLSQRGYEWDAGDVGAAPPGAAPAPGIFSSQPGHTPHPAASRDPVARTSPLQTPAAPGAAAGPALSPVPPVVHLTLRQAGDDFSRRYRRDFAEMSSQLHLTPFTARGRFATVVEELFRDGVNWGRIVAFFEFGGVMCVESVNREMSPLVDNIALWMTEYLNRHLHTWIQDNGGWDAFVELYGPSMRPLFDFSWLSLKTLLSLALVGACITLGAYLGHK
Method: (§1) A surface plasmon resonance method was used in order to analyze the binding affinity of the compounds synthesized in Example 12 for Bcl-2, which are shown in Table 13-1. The apparatus used was Biacore T200 (GE Healthcare Japan Corp.), and the running buffer used was HBS (10 mM HEPES-NaOH and 150 mM NaCl, pH 7.4) supplemented with 1 mM DTT, 3 mM EDTA, 0.01% Tween 20 and 4% DMSO. Human Bcl-2 protein (Novus Biologicals) was biotinylated using EZ-Link NHS-PEG4-Biotin (Thermo Fisher scientific Inc.) and immobilized on the surface of Sensor Chip SA (Cytiva). Then, compound solutions having a plurality of concentrations and the running buffer (blank) were added to the Bcl-2-immobilized surface to obtain the binding response of the compounds. Measurement was performed at 15° C.
The obtained sensorgrams were treated with Biacore T200 Evaluation Software, and the equilibrium dissociation constant KD of each compound for Bcl-2 was determined as shown in the following Table 13-2.

[2] = molecular target: T2, Bcl-2 protein (Recombinant Human Bcl-2 Protein) (Homo sapiens, UniProt P10415); experiment: AS-MS evaluation of binding of the mixture libraries of Examples 8 and 9 to Bcl-2, ASMS ratio (%), Example 11; conditions: ASMS ratio, mixtures obtained from Example 9, 10 uM Bcl-2 protein; for AS-MS(%) N1: replicate N1; for AS-MS(%) N2: replicate N2; for AS-MS(%) N3: replicate N3 (additional day); for AS-MS(%) N4: replicate N4 (additional day)
T2 construct: purchased Novus Biologicals NBP2-34889
T2 sequence (P10415 whole entry): as above
Method: DMSO solutions (prepared into approximately 5 mM based on calculation from the average molecular weight of each mixture) of the mixtures of each Example shown in Table 11-1-1 were respectively dispensed to 8 wells of MICROPLATE, 96-WELL, PP, V-BOTTOM (Greiner Bio-One International GmbH, 651201). 400 nL each from the 8 wells of the mixtures obtained from Example 8 was dispensed into 3 designated wells while 200 nL each from the 8 wells of the mixtures obtained from Example 9 was dispensed into 3 designated wells, using LABCYTE ECHO® 555 acoustic dispensing system (Beckman Coulter, Inc.). 200 nL each of two types of 10 μM positive controls (B2Q045-01 and B2Q048-01) was dispensed to the mixtures obtained from Example 8. Likewise, 100 nL each of two types of 20 μM positive controls and 400 nL of a DMSO solution by backfill was dispensed to the mixtures obtained from Example 9. Further, Bcl-2 protein (Novus Biologicals, NBP2-34889, Recombinant Human Bcl-2 Protein, Lot E60145051) (19.2 μL) prepared at 5 µM (final protein concentration) for the mixtures obtained from Example 8 and 10 µM (final protein concentration) for the mixtures obtained from Example 9, in advance using a Tris-HCl buffer (25 mM Tris-HCl, pH 7.4, 150 mM NaCl, 0.025% Tween-20, and 1 mM DTT) was added to the well containing the dispensed 1000 compounds or 500 compounds (final compound concentration: 100 nM), and the plate was incubated at 23° C. for 1 hour in the dark. Subsequently, 200 μL of an assay buffer (25 mM Tris-HCl, pH 7.4, 150 mM NaCl, 0.025% Tween-20, and 1 mM DTT) was centrifuged three times at 2000×G at 4° C. for 2 minutes using 96-well MacroSpin column, P-2 Material (Harvard Bioscience, Inc., 74-5655) that had been allowed to swell to condition the 96-well MacroSpin column. Subsequently, 20 μL of the sample thus incubated was added to the 96-well MacroSpin column, P-2 Material after the completion of conditioning, and SEC treatment was performed by centrifugation at 2000×G for 2 minutes. 32 μL of a 1:1 mixed solution of acetonitrile and methanol (LC/MS grade, FUJIFILM Wako Pure Chemical Corp.) was added to a flow-through liquid from SEC, and the mixture was centrifuged at 1800×G at 4° C. for 5 minutes. The supernatant was used as analysis sample ASMS (A). By a similar operation, a sample prepared at 500 compounds/well or 1000 compounds/well and supplemented with only a Tris-HCl buffer containing no Bcl-2 protein was incubated under the same conditions as above, and the same organic solvent as above was added thereto without 96-well MacroSpin column treatment. A supernatant obtained by a centrifugation operation was used as STD (B). Next, by a similar operation, a sample prepared at 1000 compounds/well or 500 compounds/well and supplemented with only a Tris-HCl buffer containing no Bcl-2 protein was incubated under the same conditions as above and treated with 96-well MacroSpin column in the same manner as above, and the same organic solvent as above was added thereto. A supernatant obtained by a centrifugation operation was used as BK (C). These samples were measured by reverse-phase LC/MS.
Then, the samples A, B and C were analyzed for the 1000 compounds or 500 compounds using TraceFinder 5.1 (Thermo Fisher Scientific Inc.) and CHANCE Software (in-house), and an ASMS ratio (%) was calculated according to the following expression.
The mixtures obtained from Example 8 were tested at the number of data of 2 (N1 and N2) in order to ensure reproducibility. The mixtures obtained from Example 9 were tested at the total number of data 4 (N1,N2, N3, and N4) involving the number of data of 2/day (N1 and N2) and data obtained on additional days.

[3] = molecular target: T1, Human Bcl-2 protein; experiment: Evaluation of binding of compound to Bcl-2 by surface plasmon resonance (SPR), Example 7; conditions: for equilibrium dissociation constant compared with compound B2Q045-01: SPR, comparison with B2Q045-01; for binding to Bcl-2 confirmed by SPR: compounds identified by AS-MS (Example 5), individually synthesized
Method: as §1, with “1 and Example 6,” for “12 for Bcl-2,”, “AK-01, for Bcl-2.” for “13-1.”, “Sulfo-NHS-LC-LC-biotin” for “NHS-PEG4-Biotin”, “(GE Healthcare Japan Corp.).” for “(Cytiva).”, “C.′.” for “C.”
The obtained sensorgrams were treated with Biacore T200 Evaluation Software, and the equilibrium dissociation constant KD of each compound for Bel-2 was determined as shown in the following Table AK-02 and Table AK-03.

Kd [1]	AS-MS(%) N1 [2]	AS-MS(%) N2 [2]	AS-MS(%) N3 [2]	AS-MS(%) N4 [2]	binding to Bcl-2 confirmed by SPR [3]	Compound	equilibrium dissociation constant KD compared with B2Q045-01 (KD=1.20 μM) or B2Q048-01 (KD=0.480 μM) [1]	equilibrium dissociation constant compared with compound B2Q045-01 [3]
788 nM	72.6%	87.8%	78.5%	74.6%	–	CC(C(=O)Nc1ccc(F)cc1)c1cc(O)cc(N2CCN(c3ccc(C(=O)NS(=O)(=O)c4ccc(N[C@H](CCN5CCOCC5)CSc5ccccc5)c([N+](=O)[O-])c4)cc3)CC2)c1 (some centres unmarked) [2-2-d1E04-1-0454]	smaller equilibrium dissociation constant KD	–
162 nM	59.4%	93.2%	85.8%	69.0%	–	CC(C(=O)Nc1nc2ccccc2s1)c1cc(O)cc(N2CCN(c3ccc(C(=O)NS(=O)(=O)c4ccc(N[C@H](CCN5CCOCC5)CSc5ccccc5)c([N+](=O)[O-])c4)cc3)CC2)c1 (some centres unmarked) [2-2-d1E04-1-0495]	smaller equilibrium dissociation constant KD	–
2510 nM	45.5%	61.4%	52.7%	51.0%	–	CC(C(=O)Nc1ccc(C(F)(F)F)cc1)c1cc(O)cc(N2CCN(c3ccc(C(=O)NS(=O)(=O)c4ccc(N[C@H](CCN5CCOCC5)CSc5ccccc5)c([N+](=O)[O-])c4)cc3)CC2)c1 (some centres unmarked) [2-2-d1E04-1-0498]	–	–
846 nM	43.8%	48.8%	53.8%	65.5%	–	CCOc1cc(C(C)C(=O)Nc2ccccc2)cc(N2CCN(c3ccc(C(=O)NS(=O)(=O)c4ccc(N[C@H](CCN5CCOCC5)CSc5ccccc5)c([N+](=O)[O-])c4)cc3)CC2)c1 (some centres unmarked) [2-2-d1E04-2-0417]	smaller equilibrium dissociation constant KD	–
1330 nM	62.1%	45.0%	44.0%	46.2%	–	CCOc1cc(C(C)C(=O)Nc2ccc(C)cc2)cc(N2CCN(c3ccc(C(=O)NS(=O)(=O)c4ccc(N[C@H](CCN5CCOCC5)CSc5ccccc5)c([N+](=O)[O-])c4)cc3)CC2)c1 (some centres unmarked) [2-2-d1E04-2-0446]	–	–
1060 nM	36.4%	42.2%	58.2%	62.7%	–	CCOc1cc(C(C)C(=O)Nc2ccc(F)cc2)cc(N2CCN(c3ccc(C(=O)NS(=O)(=O)c4ccc(N[C@H](CCN5CCOCC5)CSc5ccccc5)c([N+](=O)[O-])c4)cc3)CC2)c1 (some centres unmarked) [2-2-d1E04-2-0454]	smaller equilibrium dissociation constant KD	–
2450 nM	53.4%	45.9%	33.3%	36.8%	–	CCOc1cc(N2CCN(c3ccc(C(=O)NS(=O)(=O)c4ccc(N[C@H](CCN5CCOCC5)CSc5ccccc5)c([N+](=O)[O-])c4)cc3)CC2)cc2c1CCCC2C(=O)Nc1ccccc1 (some centres unmarked) [2-2-d1E04-2-0466]	–	–
706 nM	52.7%	137.5%	56.0%	50.3%	–	CCOc1cc(C(C)C(=O)Nc2nc3ccccc3s2)cc(N2CCN(c3ccc(C(=O)NS(=O)(=O)c4ccc(N[C@H](CCN5CCOCC5)CSc5ccccc5)c([N+](=O)[O-])c4)cc3)CC2)c1 (some centres unmarked) [2-2-d1E04-2-0495]	smaller equilibrium dissociation constant KD	–
–	–	–	–	–	confirmed to bind by SPR	CCOc1cccc(-c2ccc(CN3CCN(c4ccc(C(=O)NS(=O)(=O)c5ccc(NCCSc6ccccc6)c([N+](=O)[O-])c5)cc4)CC3)cc2C)c1 [Compound B2Q047-01, 4-[4-[[4-(3-ethoxyphenyl)-3-methylphenyl]methyl]piperazin-1-yl]-N-[3-nitro-4-(2-phenylsulfanylethylamino)phenyl]sulfonylbenzamide]	–	smaller equilibrium dissociation constant Kp
–	–	–	–	–	confirmed to bind by SPR	CCOc1cncc(-c2ccc(CN3CCN(c4ccc(C(=O)NS(=O)(=O)c5ccc(NCCSc6ccccc6)c([N+](=O)[O-])c5)cc4)CC3)cc2C)c1 [Compound B2Q048-01, 4-[4-[[4-(5-ethoxypyridin-3-yl)-3-methylphenyl]methyl]piperazin-1-yl]-N-[3-nitro-4-(2-phenylsulfanylethylamino)phenyl]sulfonylbenzamide]	–	smaller equilibrium dissociation constant Kp
–	–	–	–	–	–	CCOc1cncc(-c2ccc(CN3CCN(c4ccc(C(=O)NS(=O)(=O)c5ccc(NCCSc6ccccc6)c([N+](=O)[O-])c5)cc4)CC3)c3ccccc23)c1 [Compound B2Q066-01, 4-[4-[[4-(5-ethoxypyridin-3-yl)naphthalen-1-yl]methyl]piperazin-1-yl]-N-[3-nitro-4-(2-phenylsulfanylethylamino)phenyl]sulfonylbenzamide]	–	smaller equilibrium dissociation constant Kp
